Values quoted from earlier work in patent publication US20050266079A1, “Process for making aqueous coated beadlets” (SmithKline Beecham Corporation, priority 1999, published 2005).

Settings: in vivo; cited from earlier work

Q: Which elimination half life does the source give for `CN[C@@H](C)[C@@H](O)c1ccccc1.Cl` [Pseudoephedrine HCl, (1S, 2S)-2-Methylamino-1-phenyl-1-propanol hydrochloride] here?
A: 5 to 8 h
